Assay in all cases: DTP human tumour cell line panel, 48 h
Test [1] has as its system KM12 colon.
In test [2] the test system is HOP-62 NSCLC.
The subject of test [3] is U251 CNS.
In test [4] the test system is HCT-116 colon.
The test system of test [5] is SK-MEL-2 melanoma.
In test [6] the test system is MALME-3M melanoma.
Test [7] concerns SF-268 CNS.
Test [8] concerns HL-60(TB) leukemia.
The test system of test [9] is RXF 393 renal.
Test [10] has as its system COLO 205 colon.

For 3 molecules, TGI and GI50 results are on record in PubChem BioAssay (NCI).

Each structure is given as a SMILES string.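 Interpolation was linear, between the two tested concentrations surrounding the appropriate level; five concentrations were tested over 48 hours in 96-well plates. GI50 = concentration required for 50% inhibition of growth. TGI is the concentration that stops growth completely.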

Regarding `COc1ccc(CNc2nc(NCc3ccc(OC)cc3)nc(NC(C)C)n2)cc1`, the total growth inhibition concentration (TGI) in test [1] is 76.3 µM; in [2], 37.5 µM; in [3], over 100 µM; in test [4], 12.4 µM; in [5], 44.2 µM; in test [6], 22.8 µM. Besides, the TGI in test [7] is 50 µM; in test [8] it was 17.7 µM; in test [9] it was 38.5 µM; in test [10], 33.9 µM.
With `C[C@@H]1CC[C@H]2C(COC/C=C/COCC3=C(C(F)(F)F)O[C@@H]4O[C@@]5(C)CC[C@H]6[C@H](C)CC[C@@H]3[C@@]46OO5)=C(C(F)(F)F)O[C@@H]3O[C@@]4(C)CC[C@@H]1[C@]32OO4`, the concentration for 50% growth inhibition (GI50) in [1] was under 0.01 µM; in [3], under 0.01 µM; in [4], under 0.01 µM; in test [5], 0.387 µM; in [6], under 0.01 µM; in test [7] it was 0.0846 µM. The GI50 in test [8] was under 0.01 µM; in test [9] it was 1.64 µM; in [10], under 0.0174 µM. Besides, the TGI in test [1] is 0.0328 µM; in [2], over 100 µM; in test [3], 0.179 µM; in [4] it was over 100 µM; in test [5] it was over 100 µM; in test [6] it was 0.0445 µM. For the same molecule, the values for the TGI in test [7], in test [8] and in test [9] were over 100 µM, 0.0468 µM and over 20.7 µM, respectively.
With `CC(=N/NC(=S)Nc1c(C)n(C)n(-c2ccccc2)c1=O)/C(C)=N\NC(=S)Nc1c(C)n(C)n(-c2ccccc2)c1=O`, the TGI in test [1], in test [2], in test [3], in test [4], in [5] and in test [6] was over 100 µM in each case. Moreover, the TGI in test [7], in [8], in test [9] and in test [10] was over 100 µM each time.
